According to patent US8906925B2, “Pyrido[4,3-B]indoles containing rigid moieties” (Medivation Technologies, Inc., priority 2008, dated 2014):
Like-named read-outs stand apart in the source and are kept apart here.

How the values were obtained:
[1] = target: human dopamine D2L receptor (Homo sapiens, UniProt P14416); assay: Dopamine D2L radioligand binding ([3H]Spiperone); settings: compound at 1 μM; for Inhibition of ligand binding, Dopamine D2L: 1 µM
Description: Non-specific binding was estimated in the presence of […] Haloperidol. Receptor proteins were filtered and washed, the filters were then counted to determine [^3H]Spiperone specifically bound. […] Biochemical assay results are presented as the percent inhibition of specific binding in Table 9.

[2] = target: T1, human recombinant serotonin (5-Hydroxytryptamine) 5-HT2A receptor (Homo sapiens, UniProt P28223); assay: Serotonin 5-HT2A radioligand binding ([3H]Ketanserin); settings: for Inhibition of ligand binding, Serotonin 5-HT2A (percent inhibition of specific binding): compound at 1 μM, 1 µM; for inhibition at 1 µM: read-out: Inhibition of ligand binding, Serotonin 5-HT2A (percent inhibition of specific binding), compound at 1 μM
T1 construct: expressed in transfected cells; host or cells: Chinese hamster ovary (CHO-K1) cells
T1 sequence (P28223 whole entry): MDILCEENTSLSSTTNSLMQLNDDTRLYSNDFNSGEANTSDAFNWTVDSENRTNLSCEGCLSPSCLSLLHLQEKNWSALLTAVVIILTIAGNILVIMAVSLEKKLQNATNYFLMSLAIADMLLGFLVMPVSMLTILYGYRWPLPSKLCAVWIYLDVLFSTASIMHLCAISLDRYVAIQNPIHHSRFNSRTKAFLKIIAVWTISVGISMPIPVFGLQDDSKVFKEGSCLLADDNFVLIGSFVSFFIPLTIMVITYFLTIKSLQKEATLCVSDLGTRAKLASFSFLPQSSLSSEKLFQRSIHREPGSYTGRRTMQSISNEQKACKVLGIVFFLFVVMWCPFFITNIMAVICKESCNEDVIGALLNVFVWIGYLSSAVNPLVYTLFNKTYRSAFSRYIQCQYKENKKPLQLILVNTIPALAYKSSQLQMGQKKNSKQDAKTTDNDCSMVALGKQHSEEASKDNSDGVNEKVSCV
Experimental: Compounds of the invention were incubated with 0.5 nM [^3H]Ketanserin for 60 min. at 25° C. Non-specific binding was estimated in the presence of 1 μM Mianserin. Receptor proteins were filtered and washed, the filters were then counted to determine [^3H]Ketanserin specifically bound.

[3] = target: T2, human recombinant adrenergic α1D receptor (Homo sapiens, UniProt P25100); assay: Adrenergic α1D radioligand binding ([3H]Prozosin); settings: compound at 1 μM
T2 construct: expressed in transfected cells; host or cells: human embryonic kidney (HEK-293) cells
T2 sequence (P25100 1-572): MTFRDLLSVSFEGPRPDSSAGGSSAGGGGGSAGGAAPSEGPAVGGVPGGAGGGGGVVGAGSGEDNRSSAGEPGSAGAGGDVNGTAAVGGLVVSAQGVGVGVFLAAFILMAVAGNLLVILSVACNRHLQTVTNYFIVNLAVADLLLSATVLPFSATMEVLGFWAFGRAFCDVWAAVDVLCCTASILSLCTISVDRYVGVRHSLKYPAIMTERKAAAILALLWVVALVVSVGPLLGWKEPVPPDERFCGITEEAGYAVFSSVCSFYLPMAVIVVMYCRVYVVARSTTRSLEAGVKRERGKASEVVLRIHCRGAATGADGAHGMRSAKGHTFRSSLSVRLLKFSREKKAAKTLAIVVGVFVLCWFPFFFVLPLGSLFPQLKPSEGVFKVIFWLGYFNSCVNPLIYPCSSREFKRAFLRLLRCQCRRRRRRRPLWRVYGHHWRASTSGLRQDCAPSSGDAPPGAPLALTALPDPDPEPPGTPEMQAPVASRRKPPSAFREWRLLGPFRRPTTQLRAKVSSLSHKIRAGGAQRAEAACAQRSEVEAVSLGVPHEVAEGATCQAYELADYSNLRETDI
Experimental: Compounds of invention were incubated with 0.6 nM [^3H]Prozosin for 60 min. at 25° C. Non-specific binding was estimated in the presence of 10 μM phentolamine. Receptor proteins were filtered and washed, the filters were then counted to determine [^3H]Prozosin specifically bound. Compounds were screened at 1 μM or lower, using 1% DMSO as vehicle. Biochemical assay results are presented as the percent inhibition of specific binding in Table 9.

[4] = target: histamine receptor H1 (Homo sapiens, UniProt P35367); assay: Histamine H1 radioligand binding ([3H]Pyrilamine); settings: for inhibition at 1 µM: read-out: Histamine Binding (1 μM) H1, percent inhibition of specific binding, 1 μM
histamine receptor H1, sequence (P35367 whole entry): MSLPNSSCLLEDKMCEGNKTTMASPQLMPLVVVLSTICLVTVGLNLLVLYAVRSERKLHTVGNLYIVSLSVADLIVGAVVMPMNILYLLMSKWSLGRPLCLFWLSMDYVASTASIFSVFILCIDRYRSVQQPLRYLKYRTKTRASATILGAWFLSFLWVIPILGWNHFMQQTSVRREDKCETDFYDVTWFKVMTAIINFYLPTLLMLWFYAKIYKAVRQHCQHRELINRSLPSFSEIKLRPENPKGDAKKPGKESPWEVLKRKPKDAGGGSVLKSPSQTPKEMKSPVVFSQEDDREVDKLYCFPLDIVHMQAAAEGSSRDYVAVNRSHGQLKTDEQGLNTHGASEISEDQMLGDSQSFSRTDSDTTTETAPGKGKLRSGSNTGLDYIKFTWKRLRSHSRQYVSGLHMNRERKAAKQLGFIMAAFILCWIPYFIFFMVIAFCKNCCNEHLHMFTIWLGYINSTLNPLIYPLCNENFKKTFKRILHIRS
Outline: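 Values are percent inhibition of specific [3H]pyrilamine (1.2 nM) binding with compounds at ≤1 μM (1% DMSO vehicle); 180 min incubation at 25 °C, pH 7.4 Tris buffer, on CHO-expressed human H1 receptor; 1 μM pyrilamine defined nonspecific binding, bound ligand counted after filtration.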

[5] = target: human recombinant serotonin (5-Hydroxytryptamine) 5-HT7 receptor (Homo sapiens, UniProt P34969); assay: Serotonin 5-HT7 radioligand binding ([3H]LSD); settings: compound at 1 μM; for inhibition at 1 µM: read-out: Inhibition of ligand binding, Serotonin 5-HT7 (percent inhibition of specific binding)
human recombinant serotonin (5-Hydroxytryptamine) 5-HT7 receptor, sequence (P34969 whole entry): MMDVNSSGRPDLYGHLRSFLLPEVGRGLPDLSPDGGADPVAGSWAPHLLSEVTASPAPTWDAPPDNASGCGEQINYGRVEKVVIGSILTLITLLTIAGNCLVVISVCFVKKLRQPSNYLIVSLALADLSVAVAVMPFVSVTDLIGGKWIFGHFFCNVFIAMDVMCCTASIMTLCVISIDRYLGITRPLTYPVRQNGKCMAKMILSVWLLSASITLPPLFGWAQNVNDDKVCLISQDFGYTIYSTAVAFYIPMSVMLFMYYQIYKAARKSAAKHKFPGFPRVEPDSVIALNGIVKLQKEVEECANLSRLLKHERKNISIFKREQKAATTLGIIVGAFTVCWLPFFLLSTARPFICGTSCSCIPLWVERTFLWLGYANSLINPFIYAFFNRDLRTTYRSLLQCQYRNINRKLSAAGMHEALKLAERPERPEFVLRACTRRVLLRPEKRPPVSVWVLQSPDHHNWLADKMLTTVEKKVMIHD
Description: Receptor proteins were filtered and washed, the filters were then counted to determine [^3H]LSD specifically bound.

[6] = target: T3, human recombinant serotonin (5-Hydroxytryptamine) 5-HT2C receptor (Homo sapiens, UniProt P28335); assay: Serotonin 5-HT2C radioligand binding ([3H]Mesulergine); settings: for Inhibition of ligand binding, Serotonin 5-HT2C (percent inhibition of specific binding) / inhibition at 1 µM: compound at 1 μM; for Inhibition of ligand binding, Serotonin 5-HT2C (percent inhibition of specific binding): 1 µM
T3 construct: expressed in transfected cells; host or cells: Chinese hamster ovary (CHO-K1) cells
T3 sequence (P28335 33-458): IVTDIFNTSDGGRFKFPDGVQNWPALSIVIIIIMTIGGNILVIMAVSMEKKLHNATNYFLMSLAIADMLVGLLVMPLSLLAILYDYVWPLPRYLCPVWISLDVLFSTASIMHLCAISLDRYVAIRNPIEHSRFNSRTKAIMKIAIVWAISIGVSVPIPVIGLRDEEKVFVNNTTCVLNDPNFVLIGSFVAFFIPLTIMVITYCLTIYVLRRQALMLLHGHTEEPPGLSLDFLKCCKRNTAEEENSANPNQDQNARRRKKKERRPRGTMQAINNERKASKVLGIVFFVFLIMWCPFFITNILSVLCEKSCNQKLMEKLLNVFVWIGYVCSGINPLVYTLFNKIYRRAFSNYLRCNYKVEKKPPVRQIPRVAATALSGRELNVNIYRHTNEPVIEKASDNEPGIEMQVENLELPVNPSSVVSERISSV
Outline: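 Compounds tested at 1 μM or lower (1% DMSO vehicle) for displacement of 1 nM [3H]Mesulergine over 60 min at 25° C. Specific binding determined by filtration counting, with 1 μM Mianserin defining non-specific binding; values are percent inhibition.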

[7] = percent inhibition of specific binding
[8] = percent inhibition of specific binding, read-out: Inhibition of ligand binding, Dopamine D2L
[9] = percent inhibition of specific binding, read-out: Inhibition of ligand binding, Adrenergic α1D
[10] = read-out: Inhibition of ligand binding, Serotonin 5-HT2C (percent inhibition of specific binding)
[11] = […] [3H]Spiperone, read-out: Inhibition of ligand binding, Dopamine D2L (percent inhibition of specific binding)
[12] = read-out: Inhibition of ligand binding, Adrenergic α1D (percent inhibition of specific binding)

human dopamine D2L receptor, sequence (P14416 whole entry): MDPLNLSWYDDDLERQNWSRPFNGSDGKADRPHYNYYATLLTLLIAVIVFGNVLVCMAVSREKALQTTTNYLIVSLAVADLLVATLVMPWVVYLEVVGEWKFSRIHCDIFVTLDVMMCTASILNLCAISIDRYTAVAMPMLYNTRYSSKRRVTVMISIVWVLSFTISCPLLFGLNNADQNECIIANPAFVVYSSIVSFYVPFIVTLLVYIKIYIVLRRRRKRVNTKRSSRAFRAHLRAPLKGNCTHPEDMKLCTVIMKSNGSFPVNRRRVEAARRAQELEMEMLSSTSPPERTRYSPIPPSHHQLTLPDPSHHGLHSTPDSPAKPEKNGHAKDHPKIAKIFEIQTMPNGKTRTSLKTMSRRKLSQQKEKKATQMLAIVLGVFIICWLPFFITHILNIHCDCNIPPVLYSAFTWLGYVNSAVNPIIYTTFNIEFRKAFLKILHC

SMILES: C/C(=C\n1c2c(c3cc(Cl)ccc31)CN(C)CC2)c1ccc(Cl)cc1Cl [Compound 210, (E)-8-chloro-5-(2-(2,4-dichlorophenyl)prop-1-enyl)-2-methyl-2,3,4,5-tetrahydro-1H-pyrido[4,3-b]indole]
- Inhibition of ligand binding, Dopamine D2L [1, 7]: 52%
- Inhibition of ligand binding, Serotonin 5-HT2A (percent inhibition of specific binding) [2]: 98%
- Inhibition of ligand binding, Adrenergic α1D ([3]; percent inhibition of specific binding, 1 µM): 17%
- Histamine Binding (1 μM) H1, percent inhibition of specific binding [4]: 53%
- Inhibition of ligand binding, Serotonin 5-HT7 (percent inhibition of specific binding) ([5]; 1 µM): 65%
- Inhibition of ligand binding, Serotonin 5-HT2C (percent inhibition of specific binding) [6]: 99%

SMILES: C/C(=C\n1c2c(c3cc(C)ccc31)CN(C)CC2)c1ccc(Cl)cc1 [Compound 211, (E)-5-(2-(4-chlorophenyl)prop-1-enyl)-2,8-dimethyl-2,3,4,5-tetrahydro-1H-pyrido[4,3-b]indole]
- Inhibition of ligand binding, Dopamine D2L [1, 7]: 49%
- inhibition at 1 µM [1, 8]: 39%
- inhibition at 0.1 µM ([2]; read-out: Inhibition of ligand binding, Serotonin 5-HT2A (percent inhibition of specific binding), compound at 0.1 μM): 97%
- inhibition at 1 µM [2]: 99%
- inhibition at 1 µM [3, 9]: 96%
- Histamine Binding (1 μM) H1, percent inhibition of specific binding [4]: 54%
- inhibition at 1 µM [4]: 53%
- inhibition at 1 µM [5]: 101%
- inhibition at 0.1 µM ([6]; compound at 0.1 μM, read-out: Inhibition of ligand binding, Serotonin 5-HT2C (percent inhibition of specific binding)): 98%
- inhibition at 1 µM [6, 10]: 107%

SMILES: C/C(=C/n1c2c(c3cc(Cl)ccc31)CN(C)CC2)c1ccccc1F [Compound 212, (Z)-8-chloro-5-(2-(2-fluorophenyl)prop-1-enyl)-2-methyl-2,3,4,5-tetrahydro-1H-pyrido[4,3-b]indole]
- inhibition at 1 µM [1, 8]: 32%
- inhibition at 1 µM [2]: 91%
- inhibition at 1 µM [3, 9]: 78%
- inhibition at 1 µM [4]: 70%
- inhibition at 1 µM [5]: 98%
- inhibition at 1 µM [6, 10]: 104%

SMILES: C/C(=C\n1c2c(c3cc(Cl)ccc31)CN(C)CC2)c1ccccc1F [Compound 213, (E)-8-chloro-5-(2-(2-fluorophenyl)prop-1-enyl)-2-methyl-2,3,4,5-tetrahydro-1H-pyrido[4,3-b]indole]
- inhibition at 1 µM [1, 8]: 76%
- inhibition at 1 µM [2]: 98%
- inhibition at 1 µM [3, 9]: 76%
- inhibition at 1 µM [4]: 69%
- inhibition at 1 µM [5]: 100%
- inhibition at 1 µM [6, 10]: 102%

SMILES: Cc1ccc2c(c1)c1c(n2CC(O)(c2ccccc2)c2ccc(F)cc2)CCN(C)C1 (centres unmarked) [Compound No. 176, 2-(2,8-dimethyl-3,4-dihydro-1H-pyrido[4,3-b]indol-5(2H)-yl)-1-(4-fluorophenyl)-1-phenylethanol]
- inhibition at 1 µM [1, 8]: 6%
- inhibition at 1 µM [2]: 97%
- inhibition at 1 µM [3, 9]: 42%
- inhibition at 1 µM [4]: 21%
- inhibition at 1 µM [5]: 65%
- inhibition at 1 µM [6, 10]: 99%

SMILES: CCOC(=O)/C=C(/Cn1c2c(c3cc(C)ccc31)CN(C)CC2)c1ccccc1 [Compound No. 347, (E)-ethyl 4-(2,8-dimethyl-3,4-dihydro-1H-pyrido[4,3-b]indol-5(2H)-yl)-3-phenylbut-2-enoate]
- Inhibition of ligand binding, Dopamine D2L [1, 7]: 30%
- inhibition at 1 µM [1, 8]: 27%
- inhibition at 1 µM [2]: 100%
- inhibition at 1 µM [3, 9]: 90%
- Histamine Binding (1 μM) H1, percent inhibition of specific binding [4]: 56%
- inhibition at 1 µM [4]: 42%
- inhibition at 1 µM [5]: 101%
- inhibition at 1 µM [6, 10]: 104%

SMILES: CN1CCc2c(c3cc(Cl)ccc3n2C/C(=C\CCO)c2ccc(F)cc2)C1 [Compound No. 348, (Z)-5-(8-chloro-2-methyl-3,4-dihydro-1H-pyrido[4,3-b]indol-5(2H)-yl)-4-(4-fluorophenyl)pent-3-en-1-ol]
- Inhibition of ligand binding, Dopamine D2L [1, 7]: 29%
- inhibition at 1 µM [1, 8]: 18%
- Inhibition of ligand binding, Serotonin 5-HT2A (percent inhibition of specific binding) [2]: 100%
- inhibition at 1 µM [2]: 99%
- inhibition at 1 µM [3, 9]: 35%
- Histamine Binding (1 μM) H1, percent inhibition of specific binding [4]: 38%
- inhibition at 1 µM [4]: 32%
- Inhibition of ligand binding, Serotonin 5-HT7 (percent inhibition of specific binding) [5]: 93/93%
- inhibition at 1 µM [5]: 93%
- Inhibition of ligand binding, Serotonin 5-HT2C (percent inhibition of specific binding) [6]: 95%
- inhibition at 1 µM [6, 10]: 91%

SMILES: CN1CCc2c(c3cc(Cl)ccc3n2C/C(=C/CCO)c2ccc(F)cc2)C1 [Compound No. 349, (E)-5-(8-chloro-2-methyl-3,4-dihydro-1H-pyrido[4,3-b]indol-5(2H)-yl)-4-(4-fluorophenyl)pent-3-en-1-ol]
- Inhibition of ligand binding, Dopamine D2L [1, 7]: 46%
- inhibition at 1 µM [1, 8]: 34%
- Inhibition of ligand binding, Serotonin 5-HT2A (percent inhibition of specific binding) [2]: 100%
- inhibition at 1 µM [2]: 97%
- inhibition at 1 µM [3, 9]: 60%
- Histamine Binding (1 μM) H1, percent inhibition of specific binding [4]: 65%
- inhibition at 1 µM [4]: 53%
- Inhibition of ligand binding, Serotonin 5-HT7 (percent inhibition of specific binding) ([5]; 1 µM): 100%
- inhibition at 1 µM [5]: 93%
- Inhibition of ligand binding, Serotonin 5-HT2C (percent inhibition of specific binding) [6]: 98%
- inhibition at 1 µM [6, 10]: 96%

SMILES: CCOC(=O)/C=C(/Cn1c2c(c3cc(C)ccc31)CN(C)CC2)c1ccc(F)cc1 [Compound No. 350, (E)-ethyl 4-(2,8-dimethyl-3,4-dihydro-1H-pyrido[4,3-b]indol-5(2H)-yl)-3-(4-fluorophenyl)but-2-enoate]
- Inhibition of ligand binding, Dopamine D2L (percent inhibition of specific binding) ([1]; […] [3H]Spiperone): 21%
- inhibition at 1 µM [1, 11]: 12%
- inhibition at 1 µM [2]: 100%
- inhibition at 1 µM [3, 12]: 85%
- Histamine Binding (1 μM) H1, percent inhibition of specific binding [4]: 37%
- inhibition at 1 µM [4]: 27%
- inhibition at 1 µM [5]: 71%
- inhibition at 1 µM [6, 10]: 87%

SMILES: CCC/C=C(/Cn1c2c(c3cc(Cl)ccc31)CN(C)CC2)c1ccc(F)cc1 [Compound No. 351, (E)-8-chloro-5-(2-(4-fluorophenyl)hex-2-enyl)-2-methyl-2,3,4,5-tetrahydro-1H-pyrido[4,3-b]indole]
- Inhibition of ligand binding, Dopamine D2L (percent inhibition of specific binding) ([1]; […] [3H]Spiperone): 80%
- inhibition at 1 µM [1, 11]: 70%
- inhibition at 1 µM [2]: 100%
- inhibition at 1 µM [3, 12]: 45%
- Histamine Binding (1 μM) H1, percent inhibition of specific binding [4]: 80%
- inhibition at 1 µM [4]: 78%
- inhibition at 1 µM [5]: 90%
- inhibition at 1 µM [6, 10]: 101%

SMILES: Cc1ccc2c(c1)c1c(n2C/C(=C/C(=O)O)c2ccc(F)cc2)CCN(C)C1 [Compound No. 352, (E)-4-(2,8-dimethyl-3,4-dihydro-1H-pyrido[4,3-b]indol-5(2H)-yl)-3-(4-fluorophenyl)but-2-enoic acid]
- inhibition at 1 µM [1, 11]: 0%
- inhibition at 1 µM [2]: 84%
- inhibition at 1 µM [3, 12]: 11%
- inhibition at 1 µM [4]: 4%
- inhibition at 1 µM [5]: 52%
- inhibition at 1 µM [6, 10]: 93%
